The assay relates to NocG. The assay can be described thus: LC-HRMS, formation of beta-ketoacid […]. The class given is biochemical, Nodularia sp. LEGE 06071. The settings on record: read-out: apparent Km; variable hexanoyl-SNAC with octanoyl-SNAC as co-substrate.

Structures are written as SMILES.

Broadly, the Km is the concentration of substrate that gives half-maximal velocity.

`CCCCCC(=O)SCCNC(C)=O` [hexanoyl-SNAC]: the Km was 135 ± 29 µM.

The values are drawn from article PMC9486936 (ACS Chemical Biology, 2022).
